From PMC12472322, “Structure–Activity Relationship Study of 3-Alkynyl-6-aryl-isothiazolo[4,3-b]pyridines as Dual Inhibitors of the Lipid Kinases PIKfyve and PIP4K2C” (Pharmaceuticals, 2025)
Read-outs that look alike come from different tables or passages of the source.

Columns and labels:
[1] = system: K-562; assay: cell proliferation assay (MTS, 72 h); conditions: Homo sapiens, K562, 72 h, read-out: CC50 K-562
[2] = system: VEEV (TC-83); assay: microbe, parasite or virus in culture; format: cell-based; conditions: Venezuelan equine encephalitis virus, U-87 MG, 18 h, read-out: VEEV (TC-83) EC50
[3] = system: Capan-1; assay: cell proliferation assay (MTS, 72 h); conditions: Homo sapiens, CAPAN-1, 72 h, read-out: CC50 Capan-1
[4] = cell viability (AlamarBlue) in SARS-CoV-2-infected Vero E6/TMPRSS2 cells; format: cell-based; conditions: African green monkey, Vero E6/TMPRSS2 cells infected with SARS-CoV-2, half-maximal cytotoxic concentration, read-out: SARS-CoV2 CC50
[5] = system: non-Hodgkin lymphoma (NHL) B-cell lines; conditions: large panel of NHL B-cell lines; read-out: antiproliferative IC50; cited from earlier work
[6] = system: subcutaneous Burkitt lymphoma xenografts; conditions: oral administration, mice; cited from earlier work
[7] = system: Z-138; assay: cell proliferation assay (MTS, 72 h); conditions: Homo sapiens, Z-138, 72 h, read-out: CC50 Z-138
[8] = system: LN-229; assay: cell proliferation assay (MTS, 72 h); conditions: Homo sapiens, LN-229, 72 h, read-out: CC50 LN-229
[9] = system: SARS-CoV-2; assay: microbe, parasite or virus in culture; format: cell-based, severe acute respiratory syndrome coronavirus 2; conditions: Severe acute respiratory syndrome coronavirus 2, VeroE6/TMPRSS2, 24 h; read-out: SARS-CoV2 EC50
[10] = system: U-87 MG cells; conditions: half-maximal cytotoxic concentration
[11] = system: HCT-116; assay: cell proliferation assay (MTS, 72 h); conditions: Homo sapiens, HCT-116, 72 h, read-out: CC50 HCT-116
[12] = system: NCI-H460; assay: cell proliferation assay (MTS, 72 h); conditions: Homo sapiens, NCI-H460, 72 h, read-out: CC50 NCI-H460
[13] = system: DND-41; assay: cell proliferation assay (MTS, 72 h); conditions: DND41, 72 h, read-out: CC50 DND-41
[14] = system: HL-60; assay: cell proliferation assay (MTS, 72 h); conditions: Homo sapiens, HL-60, 72 h, read-out: CC50 HL-60
[15] = target: T1, PIKfyve (Homo sapiens, UniProt Q9Y2I7); assay: biochemical PIKfyve mobility shift assay (Nanosyn)
T1 construct: purchased Nanosyn, Santa Clara, CA, USA (contract assay service)
T1 sequence (Q9Y2I7 whole entry): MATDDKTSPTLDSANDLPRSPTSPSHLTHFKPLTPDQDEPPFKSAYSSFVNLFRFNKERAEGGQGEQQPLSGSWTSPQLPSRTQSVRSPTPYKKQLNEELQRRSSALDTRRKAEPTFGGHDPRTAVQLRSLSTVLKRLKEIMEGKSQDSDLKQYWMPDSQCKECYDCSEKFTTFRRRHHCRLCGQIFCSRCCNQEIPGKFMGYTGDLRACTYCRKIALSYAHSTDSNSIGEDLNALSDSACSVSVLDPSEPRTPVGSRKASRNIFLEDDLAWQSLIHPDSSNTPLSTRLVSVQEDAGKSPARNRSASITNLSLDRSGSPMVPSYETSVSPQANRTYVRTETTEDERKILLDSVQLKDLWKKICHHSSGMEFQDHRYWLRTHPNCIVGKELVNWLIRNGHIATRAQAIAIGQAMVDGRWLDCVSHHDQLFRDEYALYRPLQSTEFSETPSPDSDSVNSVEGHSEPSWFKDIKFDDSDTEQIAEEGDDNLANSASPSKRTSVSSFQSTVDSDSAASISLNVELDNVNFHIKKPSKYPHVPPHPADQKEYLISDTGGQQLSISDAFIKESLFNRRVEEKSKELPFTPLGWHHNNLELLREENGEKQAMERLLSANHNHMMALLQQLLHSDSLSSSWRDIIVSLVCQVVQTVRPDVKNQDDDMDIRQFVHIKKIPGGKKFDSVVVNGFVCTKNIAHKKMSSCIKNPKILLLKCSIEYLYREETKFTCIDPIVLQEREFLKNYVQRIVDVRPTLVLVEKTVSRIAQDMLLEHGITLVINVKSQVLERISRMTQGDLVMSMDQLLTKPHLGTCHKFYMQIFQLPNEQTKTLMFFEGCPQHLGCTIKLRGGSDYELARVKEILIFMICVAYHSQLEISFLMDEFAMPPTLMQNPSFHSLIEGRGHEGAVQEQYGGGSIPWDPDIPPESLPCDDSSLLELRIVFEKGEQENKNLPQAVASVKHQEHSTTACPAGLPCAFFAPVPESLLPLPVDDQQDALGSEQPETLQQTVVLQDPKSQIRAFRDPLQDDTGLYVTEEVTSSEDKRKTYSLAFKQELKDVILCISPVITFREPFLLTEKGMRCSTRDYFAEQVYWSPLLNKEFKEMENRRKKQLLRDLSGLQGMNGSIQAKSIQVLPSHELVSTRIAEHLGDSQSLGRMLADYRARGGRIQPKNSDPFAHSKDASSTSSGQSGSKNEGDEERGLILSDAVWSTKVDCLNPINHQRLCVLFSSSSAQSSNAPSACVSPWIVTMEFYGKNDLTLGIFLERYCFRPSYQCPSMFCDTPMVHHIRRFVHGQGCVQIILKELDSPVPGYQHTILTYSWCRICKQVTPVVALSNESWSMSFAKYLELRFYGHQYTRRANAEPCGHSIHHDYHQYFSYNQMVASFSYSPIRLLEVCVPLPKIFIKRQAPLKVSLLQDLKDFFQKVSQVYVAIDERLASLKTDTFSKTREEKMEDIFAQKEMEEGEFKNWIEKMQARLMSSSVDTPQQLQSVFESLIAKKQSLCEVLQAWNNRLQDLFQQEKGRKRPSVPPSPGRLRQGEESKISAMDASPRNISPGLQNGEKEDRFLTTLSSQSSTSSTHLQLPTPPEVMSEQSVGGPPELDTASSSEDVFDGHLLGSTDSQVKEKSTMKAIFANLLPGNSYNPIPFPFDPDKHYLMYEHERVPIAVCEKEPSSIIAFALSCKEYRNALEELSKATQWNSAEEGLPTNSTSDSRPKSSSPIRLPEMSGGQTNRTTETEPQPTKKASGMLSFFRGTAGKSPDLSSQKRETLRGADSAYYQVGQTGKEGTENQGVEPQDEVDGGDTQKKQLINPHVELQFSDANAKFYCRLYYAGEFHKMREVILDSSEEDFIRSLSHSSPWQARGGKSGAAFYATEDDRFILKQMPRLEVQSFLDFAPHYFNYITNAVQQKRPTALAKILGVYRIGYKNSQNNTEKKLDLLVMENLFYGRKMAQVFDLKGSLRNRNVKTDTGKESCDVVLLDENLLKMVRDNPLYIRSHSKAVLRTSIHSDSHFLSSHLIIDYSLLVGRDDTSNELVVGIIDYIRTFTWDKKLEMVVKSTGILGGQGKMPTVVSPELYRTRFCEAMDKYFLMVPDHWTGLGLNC

[16] = target: T2, PIP4K2C (Homo sapiens, UniProt Q8TBX8); assay: PIP4K2C binding assay (DiscoverX/Kinome platform)
T2 sequence (Q8TBX8 1-421): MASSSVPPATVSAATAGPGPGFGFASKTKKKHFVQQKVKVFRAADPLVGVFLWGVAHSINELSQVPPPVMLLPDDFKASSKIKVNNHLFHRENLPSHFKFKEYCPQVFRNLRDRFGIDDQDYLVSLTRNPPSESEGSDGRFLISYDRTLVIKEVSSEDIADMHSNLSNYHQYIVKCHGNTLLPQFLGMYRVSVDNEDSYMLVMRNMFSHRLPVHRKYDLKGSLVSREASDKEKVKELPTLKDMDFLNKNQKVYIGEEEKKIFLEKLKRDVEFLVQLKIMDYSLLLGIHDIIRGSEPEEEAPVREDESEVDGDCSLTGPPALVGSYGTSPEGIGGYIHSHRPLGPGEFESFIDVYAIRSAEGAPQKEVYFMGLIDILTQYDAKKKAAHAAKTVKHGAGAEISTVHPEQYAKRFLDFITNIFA

[17] = target: T2, PIP4K2C; conditions: cited from earlier work

Compound	CC50 [1] [nM]	EC50 [2] [nM]	CC50 [3] [nM]	CC50 [4] [nM]	CC50 [7] [nM]	CC50 [8] [nM]	EC50 [9] [nM]	VEEV (TC-83) CC50 [10] [nM]	CC50 [11] [nM]	CC50 [12] [nM]	CC50 [13] [nM]	CC50 [14] [nM]	Kd [17] [nM]	also measured
Cc1cccc(/C=N/Nc2cc(N3CCOCC3)nc(OCCc3ccccn3)n2)c1 [Apilimod, reference compound]	330 ± 340	1350 ± 490	< 20	18400 ± 420	60	80 ± 90	190	>10000	< 20	< 20	80 ± 20	170 ± 20	–	IC50 [5]: < 200 nM; growth of subcutaneous Burkitt lymphoma xenografts [6]: inhibits the growth
COc1cncc(C#Cc2snc3cc(-c4ccc(OC)c(OC)c4)cnc23)c1 [Compound 7l, 6-(3,4-Dimethoxyphenyl)-3-((5-methoxypyridin-3-yl)ethynyl)isothiazolo[4,3-b]pyridine]	5700 ± 1270	1640 ± 50	1790 ± 1200	> 20000	1850 ± 70	5150 ± 2050	4920 ± 930	>10000	2450 ± 850	5380 ± 560	5250 ± 640	1800	–	IC50 ([15]; Table 5 column): 3.3 nM; IC50 ([15]; Tables 1-4 and text): 3.3 nM; fold more potent on PIKfyve than 7o ([15]; ratio of IC50 values): 6 fold; fold more potent on PIKfyve than 7h ([15]; ratio of IC50 values): 200 fold; IC50 ([15]; values given in text in nM): 3 nM; Kd [16]: 39 nM
COc1ccc(-c2cnc3c(C#Cc4cccnc4)snc3c2)cc1OC [Compound 21, 6-(3,4-dimethoxyphenyl)-3-(pyridin-3-ylethynyl)isothiazolo[4,3-b]pyridine]	4240 ± 110	750 ± 20	810 ± 110	> 20000	770 ± 60	1620 ± 500	–	>10000	820 ± 370	2520 ± 1090	1750 ± 1020	1470 ± 450	46	–
FC(F)(F)c1ccccc1-c1nc(NCc2cccs2)c2ccccc2n1 [NIH-12848, reference compound]	–	–	–	–	–	–	–	–	–	–	–	–	2800	–
